# Measurements published in patent US11331369B2, “Endoparasitic depsipeptides” (Zoetis Services LLC, priority 2017, dated 2022).
# Key:
# Type in all cases: cell-based
# [1] = tested on: microfilariae of Dirofilaria immitis; experiment: Dirofilaria immitis, Microfilaria (DiMF) In vitro Assay; conditions: 72 h, read-out: DiMF Minimum Effective Dose (MED), approximately 72 hours incubation, microfilariae assessed for survival or paralysis
# [2] = tested on: 4th stage larvae (L4) of Dirofilaria immitis; experiment: Dirofilaria immitis, L4 Stage (DiL4) In Vitro Assay; conditions: Dirofilaria immitis, 72 h, read-out: DiL4 Minimum Effective Dose (MED), approximately 72 hours incubation; L4 larvae assessed for survival or paralysis
# [3] = tested on: third stage larvae of Haemonchus contortus; experiment: Haemonchus contortus L3 (HcL3) Assay; conditions: 96 h, read-out: HcL3 Minimum Effective Dose (MED)
SMILES,minimal effective concentration [1] [µM],minimal effective concentration [2] [µM],minimal effective concentration [3] [µM]
"CC#Cc1cnn(Cc2ccc(C[C@H]3OC(=O)[C@H](CC(C)C)N(C)C(=O)[C@@H](C)OC(=O)[C@H](CC(C)C)N(C)C(=O)[C@@H](Cc4ccc(Cn5cc(C#CC)cn5)cc4)OC(=O)[C@H](CC(C)C)N(C)C(=O)[C@@H](C)OC(=O)[C@H](CC(C)C)N(C)C3=O)cc2)c1 [Example 1b-118, (3S,6R,9S,12R,15S,18R,21S,24R)-3,9,15,21-tetraisobutyl-4,6,10,16,18,22-hexamethyl-12,24-bis(4-((4-(prop-1-yn-1-yl)-1H-pyrazol-1-yl)methyl)benzyl)-1,7,13,19-tetraoxa-4,10,16,22-tetraazacyclotetracosan-2,5,8,11,14,17,20,23-octaone]",0.001 to 0.01,0.0001 to 0.001,1 to 10
"CC(C)C[C@H]1C(=O)O[C@H](Cc2ccc(Cn3cnc(Br)c3)cc2)C(=O)N(C)[C@@H](CC(C)C)C(=O)O[C@H](C)C(=O)N(C)[C@@H](CC(C)C)C(=O)O[C@H](Cc2ccccc2)C(=O)N(C)[C@@H](CC(C)C)C(=O)O[C@H](C)C(=O)N1C [Example 8-15, (3S,6R,9S,12R,15S,18R,21S,24R)-6-benzyl-18-(4-((4-bromo-1H-imidazol-1-yl)methyl)benzyl)-3,9,15,21-tetraisobutyl-4,10,12,16,22,24-hexamethyl-1,7,13,19-tetraoxa-4,10,16,22-tetraazacyclotetracosan-2,5,8,11,14,17,20,23-octaone]",0.001 to 0.01,0.0001 to 0.001,1 to 10
"CC(C)C[C@H]1C(=O)O[C@H](Cc2ccc(Cn3nccc3C(F)(F)F)cc2)C(=O)N(C)[C@@H](CC(C)C)C(=O)O[C@H](C)C(=O)N(C)[C@@H](CC(C)C)C(=O)O[C@H](Cc2ccc(Cn3ccc(C(F)(F)F)n3)cc2)C(=O)N(C)[C@@H](CC(C)C)C(=O)O[C@H](C)C(=O)N1C [Example 1a-26, (3S,6R,9S,12R,15S,18R,21S,24R)-3,9,15,21-tetraisobutyl-4,6,10,16,18,22-hexamethyl-12-(4-((3-(trifluoromethyl)-1H-pyrazol-1-yl)methyl)benzyl)-24-(4-((5-(trifluoromethyl)-1H-pyrazol-1-yl)methyl)benzyl)-1,7,13,19-tetraoxa-4,10,16,22-tetraazacyclotetracosan-2,5,8,11,14,17,20,23-octaone]",0.01 to 0.1,0.0001 to 0.001,1 to 10
"CCC(C)c1ccnn1Cc1ccc(C[C@H]2OC(=O)[C@H](CC(C)C)N(C)C(=O)[C@@H](C)OC(=O)[C@H](CC(C)C)N(C)C(=O)[C@@H](Cc3ccc(Cn4nccc4C(C)CC)cc3)OC(=O)[C@H](CC(C)C)N(C)C(=O)[C@@H](C)OC(=O)[C@H](CC(C)C)N(C)C2=O)cc1 (stereo partly drawn) [Example 1b-210, (3S,6R,9S,12R,15S,18R,21S,24R)-6,18-bis(4-((5-(sec-butyl)-1H-pyrazol-1-yl)methyl)benzyl)-3,9,15,21-tetraisobutyl-4,10,12,16,22,24-hexamethyl-1,7,13,19-tetraoxa-4,10,16,22-tetraazacyclotetracosan-2,5,8,11,14,17,20,23-octaone]",0.01 to 0.1,0.0001 to 0.001,1 to 10
"COCOc1cnn(Cc2ccc(C[C@H]3OC(=O)[C@H](CC(C)C)N(C)C(=O)[C@@H](C)OC(=O)[C@H](CC(C)C)N(C)C(=O)[C@@H](Cc4ccc(Cn5cc(OCOC)cn5)cc4)OC(=O)[C@H](CC(C)C)N(C)C(=O)[C@@H](C)OC(=O)[C@H](CC(C)C)N(C)C3=O)cc2)c1 [Example 1b-201, (3S,6R,9S,12R,15S,18R,21S,24R)-3,9,15,21-tetraisobutyl-6,18-bis[[4-[[4-(methoxymethoxy)pyrazol-1-yl]methyl]phenyl]methyl]-4, 10,12,16,22,24-hexamethyl-1,7,13,19-tetraoxa-4,10,16,22-tetrazacyclotetracosane-2,5,8,11,14,17,20,23-octaone]",0.001 to 0.01,0.001 to 0.01,1 to 10
"COC(C)(C)c1ccnn1Cc1ccc(C[C@H]2OC(=O)[C@H](CC(C)C)N(C)C(=O)[C@@H](C)OC(=O)[C@H](CC(C)C)N(C)C(=O)[C@@H](Cc3ccc(Cn4nccc4C(C)(C)OC)cc3)OC(=O)[C@H](CC(C)C)N(C)C(=O)[C@@H](C)OC(=O)[C@H](CC(C)C)N(C)C2=O)cc1 [Example 1b-220, (3S,6R,9S,12R,15S,18R,21S,24R)-3,9,15,21-tetraisobutyl-6,18-bis(4-((5-(2-methoxypropan-2-yl)-1H-pyrazol-1-yl)methyl)benzyl)-4,10,12,16,22,24-hexamethyl-1,7,13,19-tetraoxa-4,10,16,22-tetraazacyclotetracosan-2,5,8,11,14,17,20,23-octaone]",0.001 to 0.01,0.001 to 0.01,10 to 100
"COc1ccc(-c2ccnn2Cc2ccc(C[C@H]3OC(=O)[C@H](CC(C)C)N(C)C(=O)[C@@H](C)OC(=O)[C@H](CC(C)C)N(C)C(=O)[C@@H](Cc4ccc(Cn5nccc5-c5ccc(OC)nc5)cc4)OC(=O)[C@H](CC(C)C)N(C)C(=O)[C@@H](C)OC(=O)[C@H](CC(C)C)N(C)C3=O)cc2)cn1 [Example 1b-190, (3S,6R,9S,12R,15S,18R,21S,24R)-3,9,15,21-tetraisobutyl-6,18-bis(4-((5-(6-methoxypyridin-3-yl)-1H-pyrazol-1-yl)methyl)benzyl)-4,10,12,16,22,24-hexamethyl-1,7,13,19-tetraoxa-4,10,16,22-tetraazacyclotetracosan-2,5,8,11,14,17,20,23-octaone]",0.001 to 0.01,0.0001 to 0.001,1 to 10
"CC(C)C[C@H]1C(=O)O[C@H](Cc2ccc(C3(n4cc(Cl)cn4)CCC3)cc2)C(=O)N(C)[C@@H](CC(C)C)C(=O)O[C@H](C)C(=O)N(C)[C@@H](CC(C)C)C(=O)O[C@H](Cc2ccc(C3(n4cc(Cl)cn4)CCC3)cc2)C(=O)N(C)[C@@H](CC(C)C)C(=O)O[C@H](C)C(=O)N1C [Example 1c-2, (3S,6R,9S,12R,15S,18R,21S,24R)-6,18-bis(4-(1-(4-chloro-1H-pyrazol-1-yl)cyclobutyl)benzyl)-3,9,15,21-tetraisobutyl-4,10,12,16,22,24-hexamethyl-1,7,13,19-tetraoxa-4,10,16,22-tetraazacyclotetracosan-2,5,8,11,14,17,20,23-octaone]",0.001 to 0.01,≤ 0.0001,≤ 1
"C#Cc1cnn(Cc2ccc(C[C@H]3OC(=O)[C@H](CC(C)C)N(C)C(=O)[C@@H](C)OC(=O)[C@H](CC(C)C)N(C)C(=O)[C@@H](Cc4ccccc4)OC(=O)[C@H](CC(C)C)N(C)C(=O)[C@@H](C)OC(=O)[C@H](CC(C)C)N(C)C3=O)cc2)c1 [Example 2-51, (3S,6R,9S,12R,15S,18R,21S,24R)-6-benzyl-18-(4-((4-ethynyl-1H-pyrazol-1-yl)methyl)benzyl)-3,9,15,21-tetraisobutyl-4,10,12,16,22,24-hexamethyl-1,7,13,19-tetraoxa-4,10,16,22-tetraazacyclotetracosan-2,5,8,11,14,17,20,23-octaone]",0.001 to 0.01,0.0001 to 0.001,1 to 10
